Experimental data published in US8415115B2, “Reaction medium for methicillin-resistant Staphylococcus aureus (MRSA) bacteria” (Biomerieux, priority 2008, dated 2013).

Key:
[1] = system: MSSAs; assay: Sub-inhibitory concentration: below the antibiotic concentration required for inhibition of MSSAs in a culture medium; format: cell-based, Staphylococcus aureus; details: culture medium such as chromID S. aureus medium
Protocol: The sub-inhibitory concentration is intended to mean a concentration below the concentration of antibiotic required for inhibition of MSSAs, in a culture medium suitable for searching for S. aureus using a biological sample, such as the chromID™ S. aureus medium (bioMerieux). This concentration is below approximately 3 mg/l in the case of Cefoxitin, approximately 2 mg/l in the case of Cefotaxime, approximately 1 mg/l in the case of Ertapenem, approximately 2 mg/l in the case of Cefoperazone, approximately 2 mg/l in the case of Cefpodoxime, and approximately 1 mg/l in the case of Cefdinir.

[2] = system: Methicillin-resistant Staphylococcus aureus (MRSA); assay: Detection of MRSA strains (colored colonies) on chromID MRSA based media with alpha-glucosidase substrates and antibiotics; format: cell-based; details: Example B, alpha-glucosidase substrates
Protocol: The media tested in the experiments hereinafter were media comprising the chromID MRSA medium (bioMérieux ref. 43 451) as basic medium, and comprising the following elements: • Medium T: chromID MRSA control medium (ref. 43 451), comprising in particular an X-N-methyl-alpha-glucoside substrate, at a concentration of 0.1 g/l, and Cefoxitin at 4 mg/1. • Medium S: medium T, also comprising an X-alpha-glucoside substrate, at a concentration of 25, 37, 45 or 50 mg/l. • Medium A: medium S (X-alpha-glucoside concentration: 45 mg/l), the Cefoxitin being substituted with Ceftriaxone, at a concentration of 1, 2, 4, 8, 16, 32 mg/l. • Medium B: medium S (X-alpha-glucoside concentration: 45 mg/l), the Cefoxitin being substituted with Cefotaxime at a concentration of 1, 2, 4, 8, 16, 32 mg/l. • Medium C: medium S (X-alpha-glucoside concentration: 45 mg/l), the Cefoxitin being substituted with Ertapenem at a concentration of 0.1, 0.25, 0.5, 0.75, 1 mg/l. • Medium D: medium S (X-alpha-glucoside concentration: 45 mg/l), the Cefoxitin being substituted with Cefoperazone at a concentration of 0.5, 1, 1.5, 2 mg/l. • Medium E: medium S (X-alpha-glucoside concentration: 45 mg/l), the Cefoxitin being substituted with Cefpodoxime at a concentration of 0.5, 1, 1.5, 2 mg/l. • Medium F: medium S (X-alpha-glucoside concentration: 45 mg/l), the Cefoxitin being substituted with a Cefoxitin/Cefotaxime concentration at the concentrations below:
• Medium G: medium S (X-alpha-glucoside concentration: 45 mg/l), the Cefoxitin being substituted with a Cefoxitin/Ceftriaxone combination at the concentrations below:
• Medium H: medium S (X-alpha-glucoside concentration: 45 mg/l), the Cefoxitin being substituted with a Cefoxitin/Ertapenem combination at the concentrations below:
• Medium I: medium S (X-alpha-glucoside concentration: 45 mg/l), the Cefoxitin being substituted with a Cefoxitin/Cefpodoxime combination at the concentrations below:
• Medium J: medium S (X-alpha-glucoside concentration: 45 mg/1), the Cefoxitin being substituted with a Cefoxitin/Cefoperazone combination at the concentrations below:
• Medium K: medium S (X-alpha-glucoside concentration: 45 mg/l), the Cefoxitin being substituted with a Cefoxitin/Cefotaxime combination, at the concentrations below, also comprising a mixture of inhibitors that favour the growth of Staphylococcus aureus.
• Medium L: medium S (X-alpha-glucoside concentration: 45 mg/l), the Cefoxitin being substituted with Cefdinir at a concentration of 0.25, 0.5, 1, 2, 4, 8 mg/l. • Medium M: medium S (X-alpha-glucoside concentration: 45 mg/l), the Cefoxitin being substituted with a Cefoxitin/Cefdinir combination at the concentrations below: […]
The strains detected correspond to the strains forming colored colonies on the medium.

Structure (SMILES) | Sub-inhibitory concentration [1] [mg/L] | Sensitivity and specificity, MRSAs distinguished from MSSAs (in words) [2]
CO[C@@]1(NC(=O)Cc2cccs2)C(=O)N2C(C(=O)O)=C(COC(N)=O)CS[C@@H]21 [Cefoxitin] | < 3 | 
CO/N=C(\C(=O)N[C@@H]1C(=O)N2C(C(=O)O)=C(CSc3nc(=O)c(=O)[nH]n3C)CS[C@H]12)c1csc(N)n1 [Ceftriaxone] |  | did not make it possible to obtain, on their own, a sensitivity and a specificity enabling MRSAs to be distinguished from MSSAs
CO/N=C(\C(=O)N[C@@H]1C(=O)N2C(C(=O)O)=C(COC(C)=O)CS[C@H]12)c1csc(N)n1 [Cefotaxime] |  | did not make it possible to obtain, on their own, a sensitivity and a specificity enabling MRSAs to be distinguished from MSSAs
CCN1CCN(C(=O)N[C@@H](C(=O)N[C@@H]2C(=O)N3C(C(=O)O)=C(CSc4nnnn4C)CS[C@H]23)c2ccc(O)cc2)C(=O)C1=O [Cefoperazone] |  | did not make it possible to obtain, on their own, a sensitivity and a specificity enabling MRSAs to be distinguished from MSSAs
C[C@@H](O)[C@H]1C(=O)N2C(C(=O)O)=C(S[C@@H]3CN[C@H](C(=O)Nc4cccc(C(=O)O)c4)C3)[C@H](C)[C@H]12 [Ertapenem] |  | did not make it possible to obtain, on their own, a sensitivity and a specificity enabling MRSAs to be distinguished from MSSAs
